From ChEMBL document CHEMBL4257494, “Exploring eukaryotic versus prokaryotic ribosomal RNA recognition with aminoglycoside derivatives” (Medchemcomm, 2018)
The source made the active and inactive calls. No cut-off for these calls is given here.

Tests used:
Bacillus spizizenii = assay: Antibacterial activity against Bacillus subtilis ATCC 6633 by double-microdilution method; format: functional
Escherichia coli = assay: Antibacterial activity against Escherichia coli R477/100 by double-microdilution method; format: functional
[1] = Binding affinity to decoding-site of rRNA in Escherichia coli S30 extract assessed as inhibition of protein translation after 60 mins by coupled transcription/translation assay
[2] = Ratio of IC50 for inhibition of decoding-site of rRNA-mediated protein translation in rabbit reticulocytes to IC50 for inhibition of decoding-site of rRNA-mediated protein translation in Escherichia coli S30 extract; format: cell-based
[3] = Binding affinity to decoding-site of rRNA in rabbit reticulocytes assessed as inhibition of protein translation after 60 mins by coupled transcription/translation assay; format: cell-based, Oryctolagus cuniculus
HEK293 [4] = assay: Binding affinity to decoding-site of rRNA in HEK293 cells assessed as read through activity at premature termination codon-containing PCDH15 R3X nonsense mutant gene (unknown origin) expressed in HEK293 cells after 16 hrs by dual luciferase reporter gene assay; format: cell-based; conditions: Homo sapiens
HEK293 [5] = assay: Binding affinity to decoding-site of rRNA in HEK293 cells assessed as read through activity at premature termination codon-containing CFTR G452X nonsense mutant gene (unknown origin) expressed in HEK293 cells after 16 hrs by dual luciferase reporter gene assay; format: cell-based; conditions: Homo sapiens

## NC[C@H]1O[C@H](O[C@@H]2[C@@H](O)[C@H](N)C[C@H](N)[C@H]2O[C@H]2O[C@@H](C(=O)O)[C@@H](O)[C@H](O)[C@H]2N)[C@H](O)[C@@H]1O.O=S(=O)(O)O
Bacillus spizizenii
  MIC: > 192 µg/mL
Escherichia coli
  MIC: > 192 µg/mL
[1]
  IC50: 420 µM
[2]
  Ratio IC50: 1.2
[3]
  IC50: 500 µM

## NC(=O)[C@@H]1O[C@H](O[C@H]2[C@H](O)[C@@H](O)[C@H](N)C[C@@H]2N)[C@H](N)[C@@H](O)[C@@H]1O.O=S(=O)(O)O
Bacillus spizizenii
  MIC: > 192 µg/mL
Escherichia coli
  MIC: > 192 µg/mL
[1]
  IC50: 1300 µM
[2]
  Ratio IC50: 0.5
[3]
  IC50: 700 µM

## C[C@H](N)[C@H]1O[C@H](O[C@@H]2[C@@H](O)[C@H](N)C[C@H](N)[C@H]2O[C@H]2O[C@H](CO)[C@@H](O)[C@H](O)[C@H]2N)[C@H](O)[C@@H]1O.O=S(=O)(O)O
Bacillus spizizenii
  MIC: > 192 µg/mL
HEK293 [4]
  Activity: Active
Escherichia coli
  MIC: > 192 µg/mL
[1]
  IC50: 2410 µM
HEK293 [5]
  Activity: Active
[2]
  Ratio IC50: 1.3
[3]
  IC50: 3180 µM

## N[C@H]1[C@@H](O[C@H]2[C@H](O)[C@@H](O)[C@H](N)C[C@@H]2N)O[C@H](CO)[C@@H](O)[C@@H]1O.O=S(=O)(O)O [PAROMAMINE SULFATE]
Bacillus spizizenii
  MIC: > 192 µg/mL
Escherichia coli
  MIC: > 192 µg/mL
[1]
  IC50: 10 µM
[2]
  Ratio IC50: 80
[3]
  IC50: 800 µM

## N[C@H]1[C@@H](O[C@H]2[C@H](O)[C@@H](O)[C@H](N)C[C@@H]2N)O[C@@H](C(=O)O)[C@@H](O)[C@@H]1O.O=S(=O)(O)O
Bacillus spizizenii
  MIC: 100 µg/mL
[1]
  IC50: 0.5 µM
[2]
  Ratio IC50: 60
[3]
  IC50: 30 µM

## NC[C@H]1O[C@H](O[C@@H]2[C@@H](O)[C@H](N)C[C@H](N)[C@H]2O[C@H]2O[C@@H](C(N)=O)[C@@H](O)[C@H](O)[C@H]2N)[C@H](O)[C@@H]1O.O=S(=O)(O)O
Bacillus spizizenii
  MIC: 83 µg/mL
[1]
  IC50: 2 µM
[2]
  Ratio IC50: 10
[3]
  IC50: 20 µM

## NC[C@H]1O[C@H](O[C@@H]2[C@@H](O)[C@H](N)C[C@H](N)[C@H]2O[C@H]2O[C@H](CO)[C@@H](O)[C@H](O)[C@H]2N)[C@H](O)[C@@H]1O.O=S(=O)(O)O
Bacillus spizizenii
  MIC: > 192 µg/mL
HEK293 [4]
  Activity: Active
Escherichia coli
  MIC: > 192 µg/mL
[1]
  IC50: 2930 µM
HEK293 [5]
  Activity: Active
[2]
  Ratio IC50: 1.5
[3]
  IC50: 4320 µM

## C[C@H](N)[C@H]1O[C@H](O[C@@H]2[C@@H](O)[C@H](N)C[C@H](N)[C@H]2O[C@H]2O[C@@H](C(N)=O)[C@@H](O)[C@H](O)[C@H]2N)[C@H](O)[C@@H]1O.O=S(=O)(O)O
Bacillus spizizenii
  MIC: > 192 µg/mL
HEK293 [4]
  Activity: inactive
Escherichia coli
  MIC: > 192 µg/mL
[1]
  IC50: 2310 µM
HEK293 [5]
  Activity: inactive
[2]
  Ratio IC50: 0.2
[3]
  IC50: 520 µM

## C[C@H](N)[C@H]1O[C@H](O[C@@H]2[C@@H](O)[C@H](N)C[C@H](N)[C@H]2O[C@H]2O[C@@H](C(=O)O)[C@@H](O)[C@H](O)[C@H]2N)[C@H](O)[C@@H]1O.O=S(=O)(O)O
Bacillus spizizenii
  MIC: > 192 µg/mL
HEK293 [4]
  Activity: inactive
Escherichia coli
  MIC: > 192 µg/mL
[1]
  IC50: 1300 µM
HEK293 [5]
  Activity: inactive
[2]
  Ratio IC50: 0.5
[3]
  IC50: 600 µM
